From the NIST ThermoML archive (doi:10.1021/je4007019)

Test: molar heat capacity at constant pressure; xn = mol fraction of the nth substance listed
Conditions: Liquid, Large sample (1 g) DSC

CCCC [butane] + C
molar heat capacity at constant pressure [J/K/mol]
Conditions | 118.15 K | 128.15 K | 138.15 K | 148.15 K | 158.15 K | 168.15 K | 178.15 K
5050 kPa, x2 = 0.95 | – | – | – | 62.44 | 64.49 | 67.9 | 73.38
5150 kPa, x2 = 0.6 | 76.47 | 76.37 | 77.25 | 77.85 | 78.21 | 78.34 | –
5150 kPa, x2 = 0.88 | 61.84 | 62.6 | 63.49 | 64.92 | 66.55 | 68.32 | –

C [methane] + CCC
molar heat capacity at constant pressure [J/K/mol]
Conditions | 108.15 K | 118.15 K | 128.15 K | 143.15 K | 153.15 K | 163.15 K
4700 kPa, x1 = 0.81 | 59.46 | 59.69 | 60.46 | 61.47 | 62.96 | 63.63
5200 kPa, x1 = 0.82 | 59.21 | 59.52 | 60.05 | 61.36 | 62.9 | 63.97
6000 kPa, x1 = 0.81 | 57.53 | 58.6 | 59.05 | 60.8 | 62.56 | 63.41
